Reference: PubChem BioAssay (NCI)
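The compound was tested at five concentrations on cells cultured in 96-well plates, with a 48-hour exposure period. GI50 marks 50% less growth. Definition used: TGI = concentration required for complete inhibition of growth.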

Columns and labels:
Test in all cases: inhibition of tumour cell growth, NCI panel, 48 h; in the data active = GI50 below about 0.43 µM; inactive = the rest
LOX IMVI melanoma = system: LOX IMVI melanoma
HCC-2998 colon = system: HCC-2998 colon
OVCAR-8 ovarian = system: OVCAR-8 ovarian
HS 578T breast = system: HS 578T breast
UO-31 renal = system: UO-31 renal
MDA-MB-435 = system: MDA-MB-435
K-562 leukemia = system: K-562 leukemia
NCI-H23 lung = system: NCI-H23 lung
A549 NSCLC = system: A549 NSCLC
RPMI-8226 leukemia = system: RPMI-8226 leukemia
MCF7 breast = system: MCF7 breast
HCT-116 colon = system: HCT-116 colon
T-47D breast = system: T-47D breast
PC-3 prostate = system: PC-3 prostate
HOP-92 NSCLC = system: HOP-92 NSCLC
SF-295 CNS = system: SF-295 CNS
A498 renal = system: A498 renal
OVCAR-5 ovarian = system: OVCAR-5 ovarian
SF-539 CNS = system: SF-539 CNS
M14 melanoma = system: M14 melanoma
OVCAR-4 ovarian = system: OVCAR-4 ovarian
RXF 393 renal = system: RXF 393 renal
HOP-62 NSCLC = system: HOP-62 NSCLC
HCT-15 colon = system: HCT-15 colon
SNB-75 CNS = system: SNB-75 CNS
786-0 renal = system: 786-0 renal
CCRF-CEM leukemia = system: CCRF-CEM leukemia
U251 CNS = system: U251 CNS
SNB-19 CNS = system: SNB-19 CNS
NCI-H460 lung = system: NCI-H460 lung
HL-60(TB) leukemia = system: HL-60(TB) leukemia
MOLT-4 leukemia = system: MOLT-4 leukemia
KM12 colon = system: KM12 colon
HT29 colon = system: HT29 colon
SN12C renal = system: SN12C renal
OVCAR-3 ovarian = system: OVCAR-3 ovarian
IGROV1 ovarian = system: IGROV1 ovarian
SK-MEL-5 melanoma = system: SK-MEL-5 melanoma
TK-10 renal = system: TK-10 renal
DU-145 prostate = system: DU-145 prostate
MALME-3M melanoma = system: MALME-3M melanoma
CAKI-1 renal = system: CAKI-1 renal
SK-OV-3 ovarian = system: SK-OV-3 ovarian
COLO 205 colon = system: COLO 205 colon
SW-620 colon = system: SW-620 colon
MDA-MB-231 breast = system: MDA-MB-231 breast
SF-268 CNS = system: SF-268 CNS
NCI/ADR-RES ovarian = system: NCI/ADR-RES ovarian
NCI-H226 lung = system: NCI-H226 lung
UACC-62 melanoma = system: UACC-62 melanoma
ACHN renal = system: ACHN renal
SR leukemia = system: SR leukemia
UACC-257 melanoma = system: UACC-257 melanoma
EKVX NSCLC = system: EKVX NSCLC
SK-MEL-28 melanoma = system: SK-MEL-28 melanoma

O=C1/C(=C/N2N=C(c3ccc4ccccc4c3)CC2c2ccccc2O)SC(=S)N1c1cccnc1 (stereo unspecified)
8.19 µM: TGI (RXF 393 renal)
5.83 µM: TGI (A498 renal)
inactive: GI50 (LOX IMVI melanoma) 1.24 µM | GI50 (HCC-2998 colon) 3.06 µM | GI50 (OVCAR-8 ovarian) 2.36 µM | GI50 (HS 578T breast) 2.55 µM | GI50 (UO-31 renal) 0.852 µM | GI50 (MDA-MB-435) 0.481 µM | GI50 (NCI-H23 lung) 3.03 µM | GI50 (A549 NSCLC) 0.704 µM | GI50 (T-47D breast) 3.8 µM | GI50 (PC-3 prostate) 0.518 µM | GI50 (HOP-92 NSCLC) 5.2 µM | GI50 (SF-295 CNS) 2.63 µM | GI50 (A498 renal) 1.38 µM | GI50 (OVCAR-5 ovarian) 6.19 µM | GI50 (SF-539 CNS) 1.18 µM | GI50 (M14 melanoma) 0.84 µM | GI50 (OVCAR-4 ovarian) 4.41 µM | GI50 (RXF 393 renal) 1.6 µM | GI50 (HOP-62 NSCLC) 2.49 µM | GI50 (HCT-15 colon) 0.428 µM | GI50 (SNB-75 CNS) 0.987 µM | GI50 (786-0 renal) 0.492 µM | GI50 (CCRF-CEM leukemia) 0.625 µM | GI50 (U251 CNS) 0.897 µM | GI50 (SNB-19 CNS) 3.85 µM | GI50 (NCI-H460 lung) 0.514 µM | GI50 (HL-60(TB) leukemia) 0.616 µM | GI50 (MOLT-4 leukemia) 2.46 µM | GI50 (KM12 colon) 0.473 µM | GI50 (HT29 colon) 3.05 µM | GI50 (SN12C renal) 2.22 µM | GI50 (OVCAR-3 ovarian) 0.571 µM | GI50 (IGROV1 ovarian) 1.47 µM | GI50 (SK-MEL-5 melanoma) 3.01 µM | GI50 (TK-10 renal) 1.84 µM | GI50 (DU-145 prostate) 1.5 µM | GI50 (MALME-3M melanoma) 5.2 µM | GI50 (CAKI-1 renal) 1.03 µM | GI50 (SK-OV-3 ovarian) 5.95 µM | GI50 (COLO 205 colon) 1.88 µM | GI50 (MDA-MB-231 breast) 2.29 µM | GI50 (SF-268 CNS) 4.08 µM | GI50 (NCI/ADR-RES ovarian) 3.43 µM | GI50 (NCI-H226 lung) 4.9 µM | GI50 (UACC-62 melanoma) 4.06 µM | GI50 (ACHN renal) 1.65 µM
> 100 µM: TGI (LOX IMVI melanoma) | TGI (HCC-2998 colon) | TGI (OVCAR-8 ovarian) | TGI (HS 578T breast) | TGI (UO-31 renal) | TGI (K-562 leukemia) | TGI (NCI-H23 lung) | TGI (A549 NSCLC) | TGI (RPMI-8226 leukemia) | TGI (MCF7 breast) | TGI (HCT-116 colon) | TGI (T-47D breast) | TGI (PC-3 prostate) | TGI (HOP-92 NSCLC) | TGI (SF-295 CNS) | TGI (OVCAR-5 ovarian) | TGI (M14 melanoma) | TGI (OVCAR-4 ovarian) | TGI (HOP-62 NSCLC) | TGI (HCT-15 colon) | TGI (786-0 renal) | TGI (CCRF-CEM leukemia) | TGI (SNB-19 CNS) | TGI (NCI-H460 lung) | TGI (HL-60(TB) leukemia) | TGI (MOLT-4 leukemia) | TGI (KM12 colon) | TGI (HT29 colon) | TGI (SN12C renal) | TGI (IGROV1 ovarian) | TGI (TK-10 renal) | TGI (DU-145 prostate) | TGI (MALME-3M melanoma) | TGI (CAKI-1 renal) | TGI (SK-OV-3 ovarian) | TGI (COLO 205 colon) | TGI (SW-620 colon) | TGI (SF-268 CNS) | TGI (NCI/ADR-RES ovarian) | TGI (NCI-H226 lung) | TGI (UACC-62 melanoma) | TGI (ACHN renal)
active: GI50 (K-562 leukemia) 0.341 µM | GI50 (RPMI-8226 leukemia) 0.391 µM | GI50 (MCF7 breast) 0.371 µM | GI50 (HCT-116 colon) 0.33 µM | GI50 (SW-620 colon) 0.365 µM
39 µM: TGI (SK-MEL-5 melanoma)
38.5 µM: TGI (OVCAR-3 ovarian)
5.16 µM: TGI (SF-539 CNS)
13.1 µM: TGI (SNB-75 CNS)
3.17 µM: TGI (MDA-MB-435)
8.34 µM: TGI (MDA-MB-231 breast)
61 µM: TGI (U251 CNS)

NC(=O)CNc1ccc([As]=[As]c2ccc(NCC(N)=O)cc2)cc1 (stereo unspecified)
14 µM: TGI (SF-268 CNS)
5.17 µM: TGI (SK-MEL-5 melanoma)
inactive: GI50 (LOX IMVI melanoma) 6.03 µM | GI50 (HCC-2998 colon) 13.9 µM | GI50 (OVCAR-8 ovarian) 4.65 µM | GI50 (HS 578T breast) 1.45 µM | GI50 (UO-31 renal) 8.21 µM | GI50 (MDA-MB-435) 6.24 µM | GI50 (K-562 leukemia) 3.47 µM | GI50 (NCI-H23 lung) 8.1 µM | GI50 (A549 NSCLC) 23.5 µM | GI50 (RPMI-8226 leukemia) 2.61 µM | GI50 (SR leukemia) 2.25 µM | GI50 (MCF7 breast) 2.12 µM | GI50 (HCT-116 colon) 3.64 µM | GI50 (T-47D breast) 1.44 µM | GI50 (PC-3 prostate) 2.7 µM | GI50 (HOP-92 NSCLC) 1.63 µM | GI50 (SF-295 CNS) 8.91 µM | GI50 (A498 renal) 4.69 µM | GI50 (OVCAR-5 ovarian) 4.42 µM | GI50 (SF-539 CNS) 2.8 µM | GI50 (M14 melanoma) 5.02 µM | GI50 (OVCAR-4 ovarian) 2.61 µM | GI50 (RXF 393 renal) 3.04 µM | GI50 (HOP-62 NSCLC) 3.94 µM | GI50 (HCT-15 colon) 4.21 µM | GI50 (UACC-257 melanoma) 12.4 µM | GI50 (SNB-75 CNS) 1.73 µM | GI50 (786-0 renal) 3.21 µM | GI50 (CCRF-CEM leukemia) 0.706 µM | GI50 (U251 CNS) 1.57 µM | GI50 (SNB-19 CNS) 4.7 µM | GI50 (NCI-H460 lung) 10.6 µM | GI50 (EKVX NSCLC) 4.83 µM | GI50 (HL-60(TB) leukemia) 1.75 µM | GI50 (MOLT-4 leukemia) 9.29 µM | GI50 (KM12 colon) 13.7 µM | GI50 (SK-MEL-28 melanoma) 4.01 µM | GI50 (OVCAR-3 ovarian) 2.1 µM | GI50 (IGROV1 ovarian) 3.37 µM | GI50 (SK-MEL-5 melanoma) 1.95 µM | GI50 (DU-145 prostate) 6.48 µM | GI50 (MALME-3M melanoma) 2.62 µM | GI50 (CAKI-1 renal) 2.41 µM | GI50 (SK-OV-3 ovarian) 22.6 µM | GI50 (COLO 205 colon) 7.83 µM | GI50 (SW-620 colon) 2.54 µM | GI50 (MDA-MB-231 breast) 3.27 µM | GI50 (SF-268 CNS) 2.73 µM | GI50 (NCI/ADR-RES ovarian) 9.13 µM | GI50 (NCI-H226 lung) 5.62 µM | GI50 (UACC-62 melanoma) 4.2 µM | GI50 (ACHN renal) 11.6 µM
14.3 µM: TGI (786-0 renal)
23.8 µM: TGI (LOX IMVI melanoma) | TGI (IGROV1 ovarian)
33.2 µM: TGI (KM12 colon)
21 µM: TGI (MDA-MB-231 breast)
71.4 µM: TGI (SK-OV-3 ovarian)
35.4 µM: TGI (NCI-H460 lung)
22.8 µM: TGI (NCI-H226 lung)
22.7 µM: TGI (PC-3 prostate)
35 µM: TGI (DU-145 prostate)
18.2 µM: TGI (SNB-19 CNS) | TGI (UACC-62 melanoma)
22 µM: TGI (COLO 205 colon)
> 100 µM: TGI (OVCAR-8 ovarian) | TGI (K-562 leukemia) | TGI (A549 NSCLC) | TGI (SR leukemia) | TGI (SF-539 CNS) | TGI (MOLT-4 leukemia) | TGI (NCI/ADR-RES ovarian)
31.1 µM: TGI (NCI-H23 lung)
21.1 µM: TGI (HS 578T breast)
29.7 µM: TGI (HCC-2998 colon)
56.6 µM: TGI (MDA-MB-435)
36.9 µM: TGI (SF-295 CNS)
24.5 µM: TGI (UO-31 renal)
18 µM: TGI (A498 renal)
10.8 µM: TGI (RPMI-8226 leukemia)
17.9 µM: TGI (CAKI-1 renal)
14.6 µM: TGI (HOP-62 NSCLC)
9.13 µM: TGI (SNB-75 CNS)
16.3 µM: TGI (HCT-116 colon)
15.1 µM: TGI (HOP-92 NSCLC)
15.4 µM: TGI (SW-620 colon)
6.14 µM: TGI (OVCAR-3 ovarian)
49.7 µM: TGI (OVCAR-4 ovarian)
23.2 µM: TGI (U251 CNS)
9.26 µM: TGI (HL-60(TB) leukemia)
90.9 µM: TGI (EKVX NSCLC)
15.2 µM: TGI (MCF7 breast)
16.4 µM: TGI (RXF 393 renal)
20.2 µM: TGI (OVCAR-5 ovarian)
73.6 µM: TGI (CCRF-CEM leukemia)
39.6 µM: TGI (UACC-257 melanoma)
30.3 µM: TGI (ACHN renal)
60.7 µM: TGI (HCT-15 colon)
9.71 µM: TGI (MALME-3M melanoma)
17.6 µM: TGI (SK-MEL-28 melanoma)
17.4 µM: TGI (T-47D breast)
20.6 µM: TGI (M14 melanoma)
